Here are results for 8 compounds from EP1070068B2, “GRANULATIMIDE DERIVATIVES FOR USE IN CANCER TREATMENT” (THE UNIVERSITY OF BRITISH COLUMBIA, priority 1998, dated 1999).

SMILES strings stand for the structures. Read-outs that look alike come from different tables or passages of the source.

The test system of series [1] is MCF-7 mp53 cells. Briefly: G2 checkpoint inhibition assay (TG-3 ELISA of mitotic cells after γ-irradiation, with nocodazole). The class given is cell-based. Conditions: concentration of 0.1-30 µM. A general note: An ELISA detects its analyte on a solid surface through an enzyme-linked reagent.
In series [2] the test system is MCF-7 mp53 cells. The description is as above. The class given is cell-based. Conditions: for IC50: Homo sapiens. The protocol:
G2 Checkpoint Inhibitor Assay: The G2 checkpoint inhibitor assay described herein involves treating cells, e. g. cells associated with a hyperproliferative disorder, including cancer cells, with a DNA damaging agent under conditions whereby arrest of the cells at G2 will be induced. A sample to be tested for G2 checkpoint inhibition activity and an agent which arrests cells in mitosis are applied to the cells, following which it is determined whether the G2 checkpoint is overcome and the cells enter mitosis. Release of the cells from arrest at G2 or prevention of arrest at G2, such that the cells proceed to mitosis, is the indicator of G2 checkpoint inhibition activity.
MCF-7 mp53 cells (mutant for p53) were cultured as monolayers in DMEM supplemented with 10% fetal bovine serum, 2 mM L-glutamine, 50 units/ml penicillin, 50 µg/ml streptomycin, 1 mM sodium pyruvate, MEM non-essential amino acids, 1 µg/ml bovine insulin, 1 µg/ml hydrocortisone, 1 ng/ml human epidermal growth factor, and 1 ng/ml β-estradiol at 37°C in humidified 5% CO2. The cells were seeded at 10,000 cells per well of 96-well polystyrene tissue culture plates (Falcon) in 100 µl medium. The cells were allowed to grow for 24 hours and then were irradiated with 6.5 Gy using a ^60Co source (Gammacell 200™, Atomic Energy Commission of Canada) delivering γ-rays at a dose rate of 1.4 Gy/min.
Extracts from marine organisms at about 10µg/ml (from 1000-fold stocks in DMSO) and 100 ng/ml nocodazole (Sigma, from a 1000-fold stock in DMSO) were added 16 hours after irradiation and the cells were incubated for a further 8 hours.
After drug treatment, the cell culture medium was removed and the cells were lysed by adding 100 µl of ice-cold lysis buffer (1 mM EGTA pH 7.4, 0.2 mM PMSF) and pipeting up-and-down 10 times. The cell lysates were transferred to 96-well PolySorp™ plates (Nunc) and dried completely by blowing warm air at about 37°C with a hair dryer positioned about 3 feet above plates. […] This was removed and replaced with 100 µl antibody buffer containing 0.1-0.15 µg/ml TG-3 monoclonal antibody and horseradish peroxidase-labelled goat anti-mouse IgM (Southern Biotechnology Associates) at a dilution of 1/500.
After overnight incubation at 4°C, the antibody solution was removed and the wells were rinsed 3 times with 200 µl 10 mM Tris HCl pH 7.4, 0.02% Tween 20™.

The target of series [3] is CDK1 (Homo sapiens, UniProt P06493). Briefly: Protein kinase inhibition assay (γ-32P ATP). As to conditions: room temperature, 15 minutes. The class given is biochemical. The method, then:
(§1) 100% DMSO was used as a negative control.
(§2) Kinase reactions are performed at room temperature. The reaction mixture contains diluted test compound, the protein kinase, substrate and γ-^32P ATP. The mixture is incubated for 15 minutes, and the reaction mix spotted, and counted.

In series [4] the target is GSK3b (Homo sapiens, UniProt P49841). Description: Protein kinase inhibition assay (γ-32P ATP, peptide substrate). The class given is biochemical. Conditions: room temperature, 15 minutes. The protocol:
(§3) The GSK3β peptide substrate used was […] (PO4H2)EDEE-amide. The ILK1 substrate is […]-amide.
as §1, §2

The target in series [5] is T1, ILK1 (Homo sapiens, UniProt Q13418).
T1 sequence (Q13418 1-452): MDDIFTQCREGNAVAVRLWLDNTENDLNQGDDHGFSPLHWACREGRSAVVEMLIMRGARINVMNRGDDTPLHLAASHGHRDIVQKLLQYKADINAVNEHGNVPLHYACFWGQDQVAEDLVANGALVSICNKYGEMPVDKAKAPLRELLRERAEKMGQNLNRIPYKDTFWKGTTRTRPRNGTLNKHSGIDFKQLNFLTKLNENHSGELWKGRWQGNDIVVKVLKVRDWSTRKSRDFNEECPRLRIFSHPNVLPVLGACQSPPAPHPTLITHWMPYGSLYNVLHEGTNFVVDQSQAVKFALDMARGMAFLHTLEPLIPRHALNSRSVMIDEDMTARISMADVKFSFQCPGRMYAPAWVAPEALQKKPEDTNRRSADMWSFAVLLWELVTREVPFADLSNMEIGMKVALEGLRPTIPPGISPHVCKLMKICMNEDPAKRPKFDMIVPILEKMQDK
The series is described as above. As to conditions: room temperature, 15 minutes. The class given is biochemical. The protocol: as §3, §1, §2

Series [6] in a line: Solubility in organic solvents. The class given is physicochemical.
Series [7] has as its system MCF-7 cells. Briefly: Cell survival, soluble tetrazolium salt assay with γ-irradiation, p53+ cells. The class given is cell-based. As to conditions: MCF-7 cells (Figure 1C).
For series [8], the system named is MCF-7 mp53 cells.
Series [9] in a line: in vitro. Conditions: human.
Series [10] concerns p53-MCF-7 cells. As to conditions: cited from earlier work.
The subject of series [11] is p53- A549 human lung adenocarcinoma cells. Conditions: cited from earlier work.
Setting [12] is: MCF7, Table 2, read-out: IC50 G2 checkpoint.
The mark [13] stands for this setting: MCF7, light or radiation study, MCF-7 mp53 cells irradiated with 6.5 Gy, read-out: half-maximal G2 checkpoint inhibition (IC50).

Chain of GSK3b (P49841 whole entry, species assumed): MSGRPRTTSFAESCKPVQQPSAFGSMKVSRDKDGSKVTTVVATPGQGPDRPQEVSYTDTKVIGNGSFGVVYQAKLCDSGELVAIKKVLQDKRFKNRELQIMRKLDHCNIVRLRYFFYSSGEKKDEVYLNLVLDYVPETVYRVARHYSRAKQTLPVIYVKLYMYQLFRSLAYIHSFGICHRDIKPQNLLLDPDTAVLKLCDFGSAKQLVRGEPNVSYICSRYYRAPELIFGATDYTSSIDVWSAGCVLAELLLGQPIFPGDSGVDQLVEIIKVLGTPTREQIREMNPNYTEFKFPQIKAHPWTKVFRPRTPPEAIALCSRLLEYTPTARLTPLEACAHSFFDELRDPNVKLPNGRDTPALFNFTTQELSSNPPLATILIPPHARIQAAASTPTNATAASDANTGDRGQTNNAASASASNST
Chain of CDK1 (P06493 whole entry, species assumed): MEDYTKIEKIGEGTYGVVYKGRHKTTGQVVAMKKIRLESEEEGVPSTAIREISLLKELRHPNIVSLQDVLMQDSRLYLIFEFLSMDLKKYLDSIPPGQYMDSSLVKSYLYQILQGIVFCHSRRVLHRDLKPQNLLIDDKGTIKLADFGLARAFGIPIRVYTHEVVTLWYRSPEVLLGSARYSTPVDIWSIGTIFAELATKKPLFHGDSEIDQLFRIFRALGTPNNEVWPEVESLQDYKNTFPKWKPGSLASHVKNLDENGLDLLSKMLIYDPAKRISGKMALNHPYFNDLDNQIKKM
Chain of CDK1 (P14635 whole entry partner, species assumed): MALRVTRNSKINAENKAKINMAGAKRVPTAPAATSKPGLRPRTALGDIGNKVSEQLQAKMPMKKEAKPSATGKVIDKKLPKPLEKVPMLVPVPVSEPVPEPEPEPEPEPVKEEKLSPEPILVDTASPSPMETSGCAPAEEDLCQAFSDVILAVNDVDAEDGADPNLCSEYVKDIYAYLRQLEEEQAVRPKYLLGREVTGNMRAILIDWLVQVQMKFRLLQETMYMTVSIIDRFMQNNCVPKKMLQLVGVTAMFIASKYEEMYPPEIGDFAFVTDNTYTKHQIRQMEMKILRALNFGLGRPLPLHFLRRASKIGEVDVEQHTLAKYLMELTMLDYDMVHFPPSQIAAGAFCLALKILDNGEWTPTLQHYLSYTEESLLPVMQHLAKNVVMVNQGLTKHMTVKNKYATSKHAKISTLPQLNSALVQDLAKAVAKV

As for `O=C1NC(=O)C(c2c[nH]c3ccccc23)=C1c1cnc[nH]1` [Didemnimide A], the “G2 checkpoint inhibition activity” value in series [1] is given as “no activity”.

What is called IC50 is the concentration needed to halve the response being measured. For `O=C1NC(=O)c2c1c1[nH]cnc1c1[nH]c3ccccc3c21` [Granulatimide], the IC50 in series [2] (MCF7, Figure 2, read-out: G2 checkpoint inhibitor IC50) is 1.3 µM; in [2] (setting [12]) it was 1.3 µM; in series [3] it was 2 µM; in [4], 2 µM; in series [5], greater than 50 µM. In addition, the solubility result in [6] (DMF or DMSO) is “soluble”; in series [6] (most common organic solvents including ethanol and methanol), “very insoluble”.

`O=C1NC(=O)c2c1c1c3ccccc3[nH]c1n1cncc21` [Isogranulatimide]: the IC50 in series [2] (setting [13]) was 1.8 ± 0.2 µM; in series [2] (setting [12]), 1.8 µM; in series [4], 0.5 µM; in series [5] it was greater than 50 µM. Further, the “synergy with irradiation in killing p53+ cells” value in series [7] was “does not kill p53+ cells synergistically”. Also, the “reduction of the IC50 for cytotoxicity when cells were irradiated” value in series [8] came out at 5 fold. The “synergy with γ-irradiation in killing p53- cells” value in series [8] (2, 4 or 6 Gy, 16 hours for isogranulatimide) is on record as “acted synergistically”. Moreover, in [9], the half-inhibitory concentration (IC50) at 16 h is 40 ± 4 µM.

For `CC(=O)CCCCn1c(=O)c2c(ncn2C)n(C)c1=O` [Pentoxifylline], in series [10], the “enhancement of cisplatin induced killing” value is on record as 30 fold. Besides, the “enhancement of radiation induced killing” value in series [11] is given as 5 fold.

As to `Cn1c(=O)c2c(ncn2C)n(C)c1=O` [caffeine, reference compound], in series [2] (MCF7, comparison compound, read-out: IC50 for G2 checkpoint inhibition), the IC50 was 1000 µM. In addition, the “absorbance readings at 405 nm” value in [2] (positive control, 2 mM) is reported as “about 1.0”.

For `O=C1NC(=O)c2c1c1c3ccccc3[nH]c1c1nccn21` [compound 40], the IC50 in series [2] (setting [13]) is greater than 100 µM; in series [2] (setting [12]) it was greater than 100 µM; in series [3], greater than 50 µM; in series [4], 25 µM; in [5], greater than 50 µM.

On to `O=C1NC(=O)c2c1c1c3ccccc3[nH]c1c1cncn21` [compound 50], for which the IC50 in series [2] (setting [13]) was 1 µM; in series [2] (setting [12]) it was 1 µM; in series [3], 0.5 µM; in series [4], 0.1 µM; in series [5], 15 µM.

As to `O=C1NC(=O)c2c1c1c3ccccc3[nH]c1n1ccnc21` [compound 60], the IC50 is 2 µM in series [2] (setting [13]); 6 µM in series [2] (setting [12]); 17 µM in series [3]; 5 µM in [4]; greater than 50 µM in series [5].
